In patent US20260286316A1, “METHOD OF PRODUCTION OF MODIFIED PHAGE AND METHOD OF TREATMENT USING SAME” (priority 2022, published 2026):
Like-named read-outs stand apart in the source and are kept apart here.

What was measured:
[1] = test system: S. aureus ATCC51650 and CIs (CI2, CI3, CI4, CI6, CI7, CI8, CI9, and CI11); assay type: cell-based, Staphylococcus aureus
Protocol: (§1) Initial screening was performed in 100 μl in 96 well plates, with follow up experiments in 10 mL culture volume. S. aureus strains were grown on 1.5% Tryptone Soya Agar (TSA) at 37° C. overnight. Single colonies were transferred to Tryptone Soya Broth (TSB) to generate a culture with a starting concentration of 5×10^5 CFU/ml. […] Antibiotics were added to the cultures at ½ MIC (according to the pretest MIC of antibiotics) if required. Optical density (OD) readings at 600 nm were recorded at 24 hours to assess the growth of bacteria co-inoculated with phage unless otherwise specified. Uninoculated, fresh media was included as a sterility control.
A synergistic effect was defined as a statistically significant decrease in optical density (OD) that was larger than the combined decrease in OD of antibiotic and phage only controls.

[2] = test system: S. aureus isolates (15 clinical isolates and 2 ATCC strains); experiment: Antibiotic sensitivity testing, 17 isolates; assay type: cell-based, Staphylococcus aureus; conditions: of 17 S. aureus isolates
Protocol: S. aureus ATCC51650 and ATCC25923 were obtained from the American Type Culture Collection (Manassas, VA, United States of America) and used as reference strains. In addition, a total of 15 S. aureus clinical isolates (CIs) were isolated from the sinonasal cavities of chronic sinusitis (CRS) patients. In each case, S. aureus was cultured by an independent diagnostic laboratory and the antibiotic susceptibility determined by disc diffusion on Mueller-Hinton agar per Clinical and Laboratory Standards Institute (CLSI) recommendations (Adelaide Pathology Partners, Mile End, SA, Australia). Bacteria were isolated on Columbian horse blood agar plates, colistin nalidixic acid plates, or cystine lactose electrolyte-deficient plates (Oxoid Australia Pty Ltd, Thebarton, SA, Australia). Positive cultures were confirmed to be S. aureus using latex agglutination testing.
(§2) The minimum inhibitory concentration (MIC) of amoxicillin, vancomycin, erythromycin, clindamycin and azithromycin against the S. aureus strains was assessed using the broth microdilution technique as previously described (Wiegand I et al., Nature protocols 3 (2): 163-175, 2008) and breakpoints defined according to CSLI guidelines. Clinical strains resistant to at least one antibiotic in three or more antibiotic categories were defined as multidrug resistant (MDR).

S. aureus CI3 [3] = experiment: Phage combined with ½ MIC antibiotics on planktonic S. aureus (OD600), CI3; assay type: cell-based, Staphylococcus aureus; conditions: ½ MIC antibiotic, phage MOI=0.2, 24 hours
Protocol: as §1

S. aureus CI3 [4] = experiment: Antibiotic sensitivity of the isolate selected for in vivo experiments; assay type: cell-based, Staphylococcus aureus
Protocol: as §2
A fresh culture of CI3 on 1.5% TSA plates was prepared two days before inoculation. A single colony was resuspended in 0.9% saline (ca. 2 ml) to turbidity reading 0.5 McFarland Units and then a 1 in 100 dilution in TSB was cultured overnight one day before the in vivo experiment. CI3 pellets were harvested and resuspended in fresh TSB to reach 2.5×10^9 Colony Forming Units (CFU)/ml.

S. aureus CI3 [5] = experiment: Rat rhinosinusitis model, efficacy arm (sinus mucosa CFU, biofilm biomass, histopathology); assay type: in vivo, Sprague Dawley rats
Text: Rat nasal tissues were fixed in 10% neutral buffered formalin. Tissue samples were then decalcified using 9.5% nitric acid in 1% ethylenediaminetetracetic acid (EDTA), processed to paraffin wax, and 6 μm sections cut and stained with H&E. The samples were examined by a veterinary pathologist blinded to the treatments given.
An established murine rhinosinusitis model was used with modifications (see YU C-j et al., Chinese Journal of Otorhinolaryngology-Skull Base Surgery 6, 2011; Zhang F et al., Am J Rhinol Allergy 27 (5): 361-366, 2013; and Jin M et al., Ear Arch Oto-Rhino-L 268 (6): 857-861, 2011). […] The sponges were placed at approximately 15 mm from the anterior nostril, located in the ostiomeatal complex. The rats were monitored for a nine-day period to allow for mucosal biofilms to form, and, on the tenth day, the sponges were removed. A two-day recovery was given to the rat before treatments begun. […] Treatments were administered intranasally twice a day for 14 days. Rats were monitored for weight and respiratory alterations (respiration rate; nasal discharge, hyperaemia or pruritus; and sneezing) during treatment, and, 14 days post-treatment initiation, the rats were humanely sacrificed. Their sinus mucosa was harvested for CFU counting, biofilm quantification, histopathology, and phage enumeration. […]
The quantification of biofilm biomass on sinus mucosa was determined using an established protocol (Singhal D et al., editors. Quantitative analysis of in vivo mucosal bacterial biofilms. International Forum of Allergy & Rhinology; 2012: Wiley Online Library (27). Briefly, the frontal sinus mucosa was harvested and placed into Dulbecco's Modified Eagle's Medium (Life Technologies, Carlsbad, CA, United States of America) on ice. One piece of mucosa from each frontal sinus was stained with a LIVE/DEAD® BacLight Bacterial Viability Kit (Life Technologies Australia). The stained mucosa was then examined at 20× magnification using a confocal laser scanning microscope (Zeiss LSM700, Carl Zeiss AG, Oberkochen, Germany). […]

## CC1(C)S[C@@H]2[C@H](NC(=O)[C@H](N)c3ccc(O)cc3)C(=O)N2[C@H]1C(=O)O [amoxicillin]
[1]; ½ MIC antibiotic with J-Sa36, Sa83 or Sa87 (MOI=0.2)
  additive or synergistic effect of the antibiotic combined with phage: None of the combinations of phage with either of the cell wall actives (amoxicillin and vancomycin) showed any significant additive or synergistic effects

## CC[C@H]1OC(=O)[C@H](C)[C@@H](O[C@H]2C[C@@](C)(OC)[C@@H](O)[C@H](C)O2)[C@H](C)[C@@H](O[C@@H]2O[C@H](C)C[C@H](N(C)C)[C@H]2O)[C@](C)(O)C[C@@H](C)C(=O)[C@H](C)[C@@H](O)[C@]1(C)O [erythromycin]
[2]
  isolates exhibiting resistance to the antibiotic: three
S. aureus CI3 [3]
  synergistic effects with phage J-Sa36, Sa83 and Sa87 on bacterial viability (OD600): synergistic effects

## CN[C@H](CC(C)C)C(=O)N[C@H]1C(=O)N[C@@H](CC(N)=O)C(=O)N[C@H]2C(=O)N[C@H]3C(=O)N[C@H](C(=O)N[C@H](C(=O)O)c4cc(O)cc(O)c4-c4cc3ccc4O)[C@H](O)c3ccc(c(Cl)c3)Oc3cc2cc(c3O[C@@H]2O[C@H](CO)[C@@H](O)[C@H](O)[C@H]2O[C@H]2C[C@](C)(N)[C@H](O)[C@H](C)O2)Oc2ccc(cc2Cl)[C@H]1O [vancomycin]
[1]
  additive or synergistic effect of the antibiotic combined with phage: None of the combinations of phage with either of the cell wall actives (amoxicillin and vancomycin) showed any significant additive or synergistic effects

## CC[C@H]1OC(=O)[C@H](C)[C@@H](O[C@H]2C[C@@](C)(OC)[C@@H](O)[C@H](C)O2)[C@H](C)[C@@H](O[C@@H]2O[C@H](C)C[C@H](N(C)C)[C@H]2O)[C@](C)(O)C[C@@H](C)CN(C)[C@H](C)[C@@H](O)[C@]1(C)O [azithromycin]
S. aureus CI3 [4]
  antibiotic sensitivity of the isolate: sensitive
S. aureus CI3 [5]; 0.5×10^10 PFU/ml Sa87 or ½ MIC antibiotic alone
  biofilm biomass on sinus mucosa compared to control, single agent: significant increase in biomass
S. aureus CI3 [5]; Sa87, ½ MIC clindamycin or ½ MIC azithromycin only
  histopathology of the maxilloturbinates, single agent: evidence of cilial denudation and surface epithelial erosion
[2]
  isolates exhibiting resistance to the antibiotic: two
S. aureus CI3 [3]
  synergistic effects with phage J-Sa36, Sa83 and Sa87 on bacterial viability (OD600): synergistic effects
